Experimental findings from the NIST ThermoML archive (doi:10.1021/acs.jced.8b00855) are described below.

Data set [1] is described as follows: Boiling temperature at pressure P. To be noted: Liquid, Ebulliometric method (Recirculating still).
The conditions of data set [2]: Liquid, Ebulliometric method (Recirculating still).

Numbers after ± are expanded uncertainties.

The vapor or sublimation pressure is the equilibrium pressure above the liquid or solid. On to `OC1CCCC1` [cyclopentanol], for which the “Boiling temperature at pressure P” value in data set [1] (71.47 kPa) was 130.2 ± 1 °C; in data set [1] (78.36 kPa) it was 133.1 ± 1 °C; in data set [1] (85.5 kPa), 135.5 ± 1 °C; in data set [1] (89.49 kPa), 136.2 ± 1 °C; in data set [1] (102 kPa), 140.5 ± 1 °C. Also, the “vapor or sublimation pressure” value in data set [2] (403.4 K) is given as 71.5 ± 2.7 kPa; in data set [2] (405.8 K), 77.95 ± 2.8 kPa; in data set [2] (408.4 K) it was 85.5 ± 2.9 kPa; in data set [2] (409.8 K) it was 89.69 ± 3.3 kPa; in data set [2] (413.4 K), 101.79 ± 3.4 kPa.

For the molecule `COC1CCCC1` [methoxycyclopentane], the “Boiling temperature at pressure P” value in data set [1] (72.04 kPa) worked out at 95.1 ± 1 °C; in data set [1] (78.83 kPa), 98.1 ± 1 °C; in data set [1] (85.94 kPa), 100.2 ± 1 °C; in data set [1] (89.82 kPa), 102.2 ± 1 °C; in data set [1] (101.39 kPa) it was 106.1 ± 1 °C. For the same molecule, the “vapor or sublimation pressure” value in data set [2] (367.9 K) was found to be 71.5 ± 2.4 kPa; in data set [2] (370.6 K), 77.95 ± 2.5 kPa; in data set [2] (373.6 K), 85.5 ± 2.6 kPa; in data set [2] (375.1 K) it was 89.69 ± 2.9 kPa; in data set [2] (379.3 K), 101.79 ± 2.9 kPa.
